Values after ≈ are worked out from the molar mass of the structure shown. Values joined by “and” are separate entries in the source; they are usually repeats but may differ in a detail not shown here. Equal values may be shown once. Read-outs that look alike come from different tables or passages of the source. Where a SMILES comes first, the peptide text is derived from it. [ ]: non-standard residue; d: D form. NMeLeu(5-OH,4R) = CN[C@@H](C[C@@H](C)CO)C(=O)O; Phe(βR-OMe) = CO[C@H](c1ccccc1)[C@H](N)C(=O)O; Trp(1-Me) = Cn1cc(C[C@H](N)C(=O)O)c2ccccc21; NMeL = CN[C@@H](CC(C)C)C(=O)O; Pra = C#CC[C@H](N)C(=O)O
What was measured:
Salmonella typhimurium = experiment: MIC ESKAPES panel, Salmonella typhimurium; assay type: cell-based
Protocol: Minimum inhibitory concentration (MIC) against ESKAPES panel of Gram positive and Gram negative pathogens (Enterococcus faecium, Staphylococcus aureus, Klebsiella pneumoniae, Acinetobacter baumannii, Pseudomonas aeruginosa, Enterobacter cloacae and Salmonella typhimurium [ESKAPES panel]) were determined at the FNDR by the standard broth dilution method [CLSI, M100]. […] Mueller Hinton broth (MHB) medium was used to grow ESKAPES panel strains. The individual cultures were added as 200 μL (inoculum of 3–7 × 10^5 cfu/ml) to the respective assay plates in each well to all columns, except the media control (200 μL of medium). […] The assay plates were incubated at 37 °C, and the results were noted on the 2nd day as turbidometric readout. The clear wells indicated inhibition of growth, while the turbid wells indicated uninhibited growth.

[1] = assay type: in vitro ADME, Rat; conditions: for Microsomal Stability Rat: clearance in microsomes
Procedure, shortened: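 1 µmol/l cpd + 0.5 mg/ml microsomes, Tris-HCl 100 mM pH 7.5 / MgCl2 6.5 mM / NADPH 1 mM, 37 °C. Timed acetonitrile quench, spin, supernatant by HPLC-MS/MS. t1/2 from first-order decay → clearance %Qh, well-stirred model.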

[2] = Hepatocyte stability, mice; assay type: in vitro ADME; conditions: for Hepatocyte Mice: clearance in hepatocytes
Procedure, shortened: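 1 µM cpd (DMSO <0.05% final), cryopreserved hepatocytes ~1e6 cells/mL, 50% serum, pH 7.4, 37 °C/5–10% CO2; up to 6 h, 6 timepoints; ACN quench, HPLC-MS/MS; t1/2 → CL via well-stirred model, % Qh.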

Mtb H37Rv = experiment: Minimum bactericidal concentration (MBC), Mtb H37Rv; assay type: cell-based, Mycobacterium tuberculosis; conditions: for MBC: Mycobacterium tuberculosis, H37RV
Mycobacterium avium = experiment: microbe, parasite or virus in culture; assay type: cell-based
Mtb ATCC 35825 = experiment: microbe, parasite or virus in culture; assay type: cell-based
[3] = target: ClpC1-NTD substrate, M. tuberculosis ClpC1P1P2 (Mycobacterium tuberculosis, UniProt P9WPC9); experiment: biochemical; assay type: biochemical; conditions: Mtb
ClpC1-NTD substrate, M. tuberculosis ClpC1P1P2, sequence (P9WPC5 whole entry): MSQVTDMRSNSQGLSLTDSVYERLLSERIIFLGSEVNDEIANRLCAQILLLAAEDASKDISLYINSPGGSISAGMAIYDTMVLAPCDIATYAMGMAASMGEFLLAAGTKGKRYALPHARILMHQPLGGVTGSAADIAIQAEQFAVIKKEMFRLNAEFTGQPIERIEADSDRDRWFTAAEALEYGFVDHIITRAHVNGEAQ
ClpC1-NTD substrate, M. tuberculosis ClpC1P1P2, sequence (P9WPC9 whole entry): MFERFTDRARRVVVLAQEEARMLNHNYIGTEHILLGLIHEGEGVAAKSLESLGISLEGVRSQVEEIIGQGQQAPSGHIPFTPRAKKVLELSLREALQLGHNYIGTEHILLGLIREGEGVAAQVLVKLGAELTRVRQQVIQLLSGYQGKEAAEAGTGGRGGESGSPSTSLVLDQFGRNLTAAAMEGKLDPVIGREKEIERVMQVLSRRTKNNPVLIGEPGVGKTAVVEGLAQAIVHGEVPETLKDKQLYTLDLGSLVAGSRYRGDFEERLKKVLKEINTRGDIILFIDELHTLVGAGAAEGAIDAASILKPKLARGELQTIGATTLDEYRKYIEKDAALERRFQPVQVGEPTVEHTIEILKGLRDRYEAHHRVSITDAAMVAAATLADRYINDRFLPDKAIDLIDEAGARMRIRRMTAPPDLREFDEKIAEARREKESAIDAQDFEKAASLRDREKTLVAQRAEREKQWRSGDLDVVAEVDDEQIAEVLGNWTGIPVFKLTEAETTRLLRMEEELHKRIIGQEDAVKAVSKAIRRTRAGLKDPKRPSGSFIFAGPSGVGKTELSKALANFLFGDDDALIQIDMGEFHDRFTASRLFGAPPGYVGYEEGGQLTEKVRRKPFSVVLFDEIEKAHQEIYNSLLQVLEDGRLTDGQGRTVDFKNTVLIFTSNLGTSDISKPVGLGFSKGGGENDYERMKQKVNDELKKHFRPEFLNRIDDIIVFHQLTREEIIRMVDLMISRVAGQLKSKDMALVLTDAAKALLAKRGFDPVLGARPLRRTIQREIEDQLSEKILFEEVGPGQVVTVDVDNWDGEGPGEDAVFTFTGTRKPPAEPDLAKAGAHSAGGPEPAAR
ClpC1-NTD substrate, M. tuberculosis ClpC1P1P2, sequence (P9WPC3 whole entry, further chain): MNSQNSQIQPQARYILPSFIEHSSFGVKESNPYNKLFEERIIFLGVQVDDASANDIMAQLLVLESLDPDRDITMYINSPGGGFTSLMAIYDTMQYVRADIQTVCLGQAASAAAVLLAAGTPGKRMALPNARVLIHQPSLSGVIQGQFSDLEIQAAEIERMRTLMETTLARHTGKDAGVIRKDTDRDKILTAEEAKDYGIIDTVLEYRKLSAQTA

in vivo = assay type: in vivo, BALB/cAnNCrl mice
Protocol: The in-life experimental procedures were conducted in strict compliance with German and European animal welfare legislation in an AAALAC-accredited facility. Male BALB/cAnNCrl mice (Charles River Laboratories Research Models and Services, 97633 Sulzfeld, Germany) were used. Animals were 9 weeks old at dosing with a body weight of 21.6–24.3 g. Animals were delivered free of pathogens according to FELASA recommendations with a health certificate provided by the breeder. Upon receipt, the state of health and sex was checked. Animals acclimatized for at least 5 days before the commencement of the in-life phase. During acclimation, animals were group-housed in individually ventilated cages, on birch wood granulate bedding with species-specific enrichment (nesting material, mouse igloo, gnawing wood). During experimental conduct, animals were housed in conventional cages with elevated grid floors. Grid floor was used to avoid contamination with test item material excreted via urine and feces and subsequent reuptake during fur grooming. No bedding and enrichment were provided except a cage divider, which can be used as a shelter. Animals always had unlimited access to food and water and received a pelleted, total pathogen-free maintenance diet and tap drinking water, sterilized by filter.
On the day before dosing, test item(s) were suspended in kleptose (20% in WFI) under continuous stirring (3.0 mg/ml). Following 2 min vortexing and 1 h stirring, the formulation was sonicated at 60 °C for 30 min and stirred at ambient temperature overnight. Before dosing, the formulation was vortexed for 2 min followed by ultraturrax treatment for 2 min.
Male BALB/cAnNCrl mice (n = 3 per test item and administration route) received a bolus dose of the formulated test item(s) (1 mg/kg iv, 30 mg/kg po) at t = 0 h, and whole blood samples were collected subsequently (35 µl at 0.1 (iv) / 0.25 (po), 0.5, 1, 2, 4, 6 h; 600 µl at sacrifice after 24 h). Animals were euthanized by exsanguination in deep isoflurane anesthesia. Whole blood samples were immediately stored on ice at about 4 °C. Plasma was separated by centrifugation at approximately 10,000 × g for 5 m at +4 °C. Centrifugation of each blood sample was started within 10 m after collection. A single aliquot of at least 15 µL of plasma was prepared and immediately stored at −20 ± 5 °C.
Sample proteins were precipitated with ACN (1 + 12, v/v) containing internal standard, and supernatants analyzed by quantitative UPLC-MS/MS: Phenomenex Luna Omega C18, 2.1 × 50 mm, 1.6 µm, 40 °C, gradient between 10% - 90% ACN with 0.1% formic acid. LogD determination: Lipophilicity of the test items, expressed as chromLogD7.5, was assessed by measuring their chromatographic retention times on C18-material. The chromatographic retention versus logD7.5 values of a series of thirteen n-alkan-2-ones (2-butanone – 2-hexadecanone) served as lipophilicity calibration.

[4] = Salmonella enterica, TYPHIMURIUM, Gram negative, n = 3 well replicates
[5] = Salmonella enterica, TYPHIMURIUM, Gram-Negative Bacteria, replicates 1-3
[6] = read-out: MBC (from Set 3) Mtb H37Rv
[7] = individual example, read-out: MBC Mtb H37Rv
[8] = Experiment 2, three replicate columns
[9] = Experiment 2, three replicate columns, read-out: MIC (µM) Mycobacterium avium
[10] = Mycobacterium avium, Experiment 1, read-out: MIC Mycobacterium avium
[11] = Mycobacterium avium, Experiment 2, three replicate columns, read-out: MIC (µM) Mycobacterium avium
[12] = Mycobacterium avium, Experiment 2, three replicate columns, read-out: MIC (µg/ml) Mycobacterium avium
[13] = Mycobacterium avium, mean ± SD, read-out: MIC Mycobacterium avium
[14] = Mycobacterium tuberculosis, ATCC35825, mean, n = 2 well replicates
[15] = Mycobacterium tuberculosis, ATCC35825, single well replicates
[16] = single well replicates, listed as 8 (UdSBAI-0545)
[17] = mean of the measurements, read-out: DC50, Mean
[18] = oral gavage 30 mg/kg, mice, Mean, BLOQ <1.00 nmol/L

| SMILES | MIC (Salmonella typhimurium; [4]) [µM] | MIC (Salmonella typhimurium; [5]) [µg/mL] | Microsomal Stability Rat QH [1] | Microsomal Stability Rat [1] [%Qh] | Hepatocyte Stability Mouse QH [2] [%] | Hepatocyte Mice [2] [%Qh] | MBC (Mtb H37Rv; [6]) | MBC (Mtb H37Rv; [7]) | MIC (µg/ml) Mycobacterium avium (Mycobacterium avium; [8]) [µg/mL] | MIC (Mycobacterium avium; [9]) [µM] | MIC (Mycobacterium avium; [10]) [µg/mL] | MIC (Mycobacterium avium; [11]) [µM] | MIC (Mycobacterium avium; [12]) [µg/mL] | MIC (Mycobacterium avium; [13]) [µM] | MIC (Mtb ATCC 35825; [14]) | MIC (Mtb ATCC 35825; [15]) | DC50 [3, 17] [µM] | other results |
| --- | --- | --- | --- | --- | --- | --- | --- | --- | --- | --- | --- | --- | --- | --- | --- | --- | --- | --- |
| COC(c1ccccc1)C1NC(=O)C(C)NC(=O)C(CC(C)CO)N(C)C(=O)C(Cc2cn(Cc3cn(CCOCCOCCOCCOCCn4cc(Cn5cc(CC6NC(=O)C(C(C)C)NC(=O)C(CC(C)C)N(C)C(=O)C(C(C)C)NC(=O)C(C(OC)c7ccccc7)NC(=O)C(C)NC(=O)C(CC(C)CO)N(C)C6=O)c6ccccc65)nn4)nn3)c3ccccc23)NC(=O)C(C(C)C)NC(=O)C(CC(C)C)N(C)C(=O)C(C(C)C)NC1=O (stereo not shown) [Compound 8] | > 50 | > 109 | 43% and 48.3% and 40.9% | 40 | 50.268 | 32 | 0.22 µg/mL and 0.1 µM | 0.1 µM and 0.2 µg/mL | >108.53 | >50 | > 109 | > 50 | > 109 | > 50 | < 0.1 µM and < 0.2 µg/mL | < 0.21 µg/mL and < 0.1 µM | 8.3 | MIC (Salmonella typhimurium; Gram-Negative Bacteria, replicates 1-3, listed as 8 (UdSBI-0545)): >50 µM; colony growth after replating (MBC assay) (Mtb H37Rv; Mtb H37Rv, result in words): did not form any colonies at concentrations at or above the MIC value; MIC (Mycobacterium avium; Experiment 1, listed as 8 (UdSBI-0545), read-out: MIC Mycobacterium avium): >50 µM; MIC (Mtb ATCC 35825; [16]): <0.1 µM; MIC Mtb ATCC 35825 (Mtb ATCC 35825; [16]): <0.21 µg/mL; Plasma concentration 0.5 h (in vivo; [18]): 19.4 nM; Plasma concentration 1 h (in vivo; [18]): 18.1 nM; Plasma concentration 2 h (in vivo; [18]): 26.0 nM; Plasma concentration 4 h (in vivo; [18]): 31.8 nM; Plasma concentration 6 h (in vivo; [18]): 32.5 nM; Plasma concentration 24 h (in vivo; [18]): 96.7 nM; Plasma concentration […] (in vivo; [18]): 25.7 nM; Plasma concentration 24 h (in vivo; oral gavage, individual animals 1-3, BLOQ <1.00 nmol/L, listed as 8 (UdSBI-0545)): 101 nM and 92.4 nM; Cmax/Dose (in vivo; oral gavage, mice, Mean): 10.4 nM/nmol/kg; tmax (in vivo; oral gavage, mice, Mean): 24.0 h; AUC0-t/Dose (in vivo; oral gavage, mice, Mean (compound 6: maximum potential value with 1 nM for each time point)): 165 h*nM/nmol/kg |
| C#CC[C@@H]1NC(=O)[C@H](CC(C)C)N(C)C(=O)[C@H](C(C)C)NC(=O)[C@H]([C@H](OC)c2ccccc2)NC(=O)[C@H](C)NC(=O)[C@H](C[C@@H](C)CO)N(C)C(=O)[C@H](Cc2cn(C)c3ccccc23)NC1=O [Compound 10] (cyclo(A[Phe(βR-OMe)]V[NMeL][Pra][Trp(1-Me)][NMeLeu(5-OH,4R)])) | > 50 | > 45.6 | 84.600% | 85 | 64.420 | 64 | 12.5 µM and 11.4 µg/mL | 12.5 µM and 11.4 µg/mL | 11.41 (≈ 12.5 µM) | 12.5 | 11.4 | 12.5 | 11.4 | 12.5 | 0.4 µM and 0.4 µg/mL | 0.36 µg/mL and 0.39 µM | > 100 | MIC (Salmonella typhimurium; Gram-Negative Bacteria, replicates 1-3): >50 µM; MIC (Mycobacterium avium; Experiment 1, read-out: MIC Mycobacterium avium): 12.5 µM; MIC (Mtb ATCC 35825; single well replicates): 0.39 µM (≈ 0.356 µg/mL); MIC Mtb ATCC 35825 (Mtb ATCC 35825; single well replicates): 0.36 µg/mL (≈ 0.394 µM); DC50 ([3]; Measurement 1-4, read-out: DC50, single measurements): > 100 µM |

— paper PMC10914731, “Homo-BacPROTAC-induced degradation of ClpC1 as a strategy against drug-resistant mycobacteria” (Nature Communications, 2024)
